US11278534B2, “Enantiomers of substituted thiazoles as antiviral compounds” (Innovative Molecules GmbH, priority 2017, dated 2022)
Converted amounts (≈) assume the structure as drawn.

Legend:
[1] = tested on: HSV-1; assay: activity selectivity assay, HSV-1 infected Vero cells; format: cell-based; settings: Human alphaherpesvirus 1
Protocol: (§1) HSV (HSV-1 Walki, HSV-1F, HSV-2 MS, HSV clinical isolates and HSV resistant strains) was cultivated on Vero cells (ATCC CCL-81) under the following conditions: The cells were grown in M199 medium (5% foetal calf serum, 2 mM glutamine, 100 IU/mL penicillin, 100 μg/mL streptomycin) in cell culture bottles at 37° C. and 5% CO2. The cells were splitted twice per week (1:4). For the infection, the medium was removed, the cells were washed with Hank's solution, detached using 0.05% trypsin, 0.02% EDTA and incubacted at a density of 4×10^5 cells/mL under the above-mentioned conditions for 24 h. The medium was removed and the virus solution was added at an m.o.i of <0.05 in a volume of 2 mL per 175 cm^2 surface. The infected cells were incubated at 37° C., 5% CO2 for 1 h and then the medium was made up to a volume of 50 mL per 175 cm^2 bottle. […] The virus was released by freezing (−80° C.) and thwawing (37° C.) the infected cultures twice. Cell debris was removed by centrifugation (300 g, 10 min, 4° C.) and the supernatant was frozen in aliquots at −80° C.
(§2) The virus titre was determined using a plaque assay. To this end, Vero cells were seeded in 24-well plates at a density of 4×10^5 cells per well and, after 24 h of incubation (37° C., 5% CO2) infected with 100 μL of inoculum (dilutions (10^−2 to 10^−12) of the virus stock). 1 h after the infection, the medium was removed and the cells were covered with 1 mL of overlay medium (0.5% methylcellulose, 0.22% sodium bicarbonate, 2 mM glutamine, 100 IU/mL penicillin, 100 μg/mL streptomycin, 5% foetal calf serum in MEM-Eagle medium with Earl's salt) and incubated for 3 d in a cell incubator at (37° C., 5% CO2). The cells were then fixated using 4% formaline for 1 h, washed with water, stained with Giemsa for 30 min and then washed and dried. Using a plaque viewer, the virus titre was determined.
(§3) The antiviral action was determined using a patented (DE10235967 and WO2004/015416) and subsequently published activity selectivity assay (G. Kleymann et al. J. Biomol. Screen. 2004; 9, 578) in 96- or 384-well mictrotitre plates using various cell lines of neuronal, lymphoid and epithelial origin, such as, for example, Vero (african green monkey kidney cells), MEF (murine embryonal fibroblasts), HELF (human embryonal fibroblasts), NT2 (human neuronal cell line) or Jurkat (human lymphoid T-cell line). The relevant experimental details of the above mentioned patent and publication to evaluate the antiviral activity of the invention (disclosed compounds) are described below.
(§4) The effect of the substances on the spreading of the cytopathogenic effect was determined in comparision to the reference compound acyclovir-sodium (Zovirax™), a clinically approved anti-herpes chemotherapeutic.
(§5) The compounds (50 mM stock solution dissolved in DMSO) are examined on microtitre plates (for example 96-well flat bottom cell culture plates) at a final concentration of 250 to 0.5 μM or, in case of potent antiviral compounds, 250 to 0.5 nM in 2 to 4 replications (4 to 2 substances per plate). Also examined are toxic and cytostatic effects or precipitation of the compounds. […]

[2] = tested on: HSV-2; assay: activity selectivity assay, HSV-2 infected Vero cells; format: cell-based; settings: Human alphaherpesvirus 2
Protocol: as §1, §2, §3, §4, §5

[3] = tested on: HSV-1 ACV resistant; assay: activity selectivity assay, HSV-1 ACV resistant; format: cell-based; settings: Human alphaherpesvirus 1
Protocol: as §1, §2, §3, §4, §5

[4] = biological target: Human Carboanhydrase II (Homo sapiens, UniProt P00918); assay: carbonic anhydrase activity assay (pH indicator method); format: biochemical; settings: for carbonic anhydrase inhibition: result in words
[5] = aqueous solubility (PBS, pH 7.4), shake flask; format: physicochemical
Protocol: The aqueous solubility (PBS, pH 7.4) was determined at Eurofins, Cerep, Panlabs according to C. A. Lipinski et al. Adv. Drug Del. Rev. 1997:46, 3. Measurement of the aqueous solubility was performed according to Lipinski, C. A. et al. Adv. Drug Del. Rev. 1997:46, 3. The relevant information from the literature is described below. […] In addition, chromatographic purity (%) was defined as the peak area of the principal peak relative to the total integrated peak area in the HPLC chromatogram of the calibration standard.

[6] = tested on: HSV-1; assay: animal model, intranasal HSV-1 infection of mice, survival; format: in vivo, BALB/cABom strain; settings: Human alphaherpesvirus 1, inhaled or nasal, 120 h; HSV-1, mice, treatment for 5 days; read-out: ED50 (50% of the infected animals survive)
Protocol: (§6) Animal experiments were performed according to patent WO2001/047904 or subsequent publications (U. A. K. Betz et al. Antimicrob. Agents Chemother. 2002:46, 1766 or G. Kleymann et al. Nat. Med. 2002; 8, 392). The relevant experimental details of the above mentioned patent and publication to evaluate the antiviral activity of the invention (disclosed compounds) in-vivo (animal models) are described below.
(§7) 6 week-old female mice, BALB/cABom strain were obtained from a commercial breeder.
(§8) Infection: The animals were anaesthetized with Et2O in a sealed glass vessel. 50 μL of a dilution of the virus stock (infection dose 5×10^4 PFU (Plaque forming units)) were introduced into the nose of the anaesthetized animals using a pipette. In 90 to 100% of the animals, this infection dose causes death by generalized infection with prominent repiratory and central-nervous symptoms on average after 5 to 8 days.
(§9) 6 hours after infection animals were treated with doses of 0.1-150 mg/kg of body mass, 3 times per day at 7 am, […] (tid) or 2 times per day at 7 am and […] (bid) or once daily at […] (od) for a period of 5 days. […] After the last administration, the animals were monitored further and the time of death was determined.

[7] = tested on: HSV-2; assay: animal model, intranasal HSV-2 infection of mice, survival; format: in vivo, BALB/cABom strain; settings: Human alphaherpesvirus 2, inhaled or nasal, 120 h; HSV-2, mice, treatment for 5 days; read-out: ED50 (50% of the infected animals survive)
Protocol: as §6, §7, §8, §9

[8] = in vivo; parameters: species or system mice strain C57BL/6J; settings: male, C57BL/6J, mouse, po, 10 mg/kg
Protocol: Pharmcokinetic parameters were determined for Example 7, 7(−), 7(+) and 7c in male mice strain C57BL/6J at an intraveneous (i.v.) dose of 5 mg/kg (5% DMSO in heterologous plasma, 2.5 mL/kg) and an oral dose (p.o) of 10 mg/kg (DMSO/0.5% HPMC (5:95), 5 mL/kg).

| SMILES | IC50 [1] [nM] | IC50 [2] [nM] | IC50 [3] [nM] | IC50 [4] [µM] | carbonic anhydrase inhibition [4] | solubility at 24 h ([5]; aqueous buffer, kinetic from dmso stock, pH 7.4, shake flask, 24 h incubation, rt, read-out: Solubility [μM] (PBS, pH 7.4, 200 μM Test concentration)) [µM] | increase of aqueous solubility in comparison to Example 87 (WO2001/047904) ([5]; pH 7.4) | ED50 [6] [mg/kg] | ED50 [7] [mg/kg] | AUC [8] [ng·h/mL] | Cmax [8] [ng/mL] |
| --- | --- | --- | --- | --- | --- | --- | --- | --- | --- | --- | --- |
| Cc1nc(N(C)C(=O)Cc2ccc(-c3cc(F)ccc3F)cc2)sc1S(C)(=N)=O (racemic) [Example 7, 2-(2′,5′-Difluoro-[1,1′-biphenyl]-4-yl)-N-methyl-N-(4-methyl-5-(S-methylsulfonimidoyl)thiazol-2-yl)acetamide] | 25 to 100 | 25 to 100 | 25 to 100 | > 10 | no or significantly reduced carbonic anhydrase inhibition | 5 (≈ 2.18 µg/mL) | at least one order of mangitude | < 10 | < 10 |  |  |
| Cc1nc(N(C)C(=O)Cc2ccc(-c3ccccn3)cc2)sc1[S@](C)(=N)=O (racemic) [Example 7c, N-Methyl-N-[4-methyl-5-(methylsulfonimidoyl)thiazol-2-yl]-2-[4-(2-pyridyl)phenyl]acetamide] | 150 to 600 | 200 to 1500 | 150 to 600 | > 10 |  |  |  |  |  | 22500 | 4290 |
| Cc1nc(N(C)C(=O)Cc2ccc(-c3ccccn3)cc2)sc1[S@](C)(=N)=O (single isomer, unassigned) [Example 7c(+), (+)-N-Methyl-N-(4-methyl-5-(S-methylsulfonimidoyl)thiazol-2-yl)-2-(4-(pyridin-2-yl)phenyl)acetamide] | 300 to 750 | 500 to 1500 | 300 to 750 | > 10 | no or significantly reduced carbonic anhydrase inhibition |  |  |  |  | 31200 | 5700 |
| Cc1nc(N(C)C(=O)Cc2ccc(-c3ccccn3)cc2)sc1[S@@](C)(=N)=O (single isomer, unassigned) [Example 7c(−), (−)-N-Methyl-N-(4-methyl-5-(S-methylsulfonimidoyl)thiazol-2-yl)-2-(4-(pyridin-2-yl)phenyl)acetamide] | 75 to 300 | 100 to 750 | 75 to 300 | > 10 | no or significantly reduced carbonic anhydrase inhibition |  |  |  |  | 38000 | 6650 |
| Cc1nc(N(C)C(=O)Cc2ccc(-c3cc(F)ccc3F)cc2)sc1[S@](C)(=N)=O [Example 7(+), (+)-(R)-2-(2′,5′-Difluoro-[1,1′-biphenyl]-4-yl)-N-methyl-N-(4-methyl-5-(S-methylsulfonimidoyl)thiazol-2-yl)acetamide] | 30 to 200 | 30 to 200 | 30 to 200 | > 10 | no or significantly reduced carbonic anhydrase inhibition |  |  |  |  |  |  |
| Cc1nc(N(C)C(=O)Cc2ccc(-c3cc(F)ccc3F)cc2)sc1[S@@](C)(=N)=O [Example 7(−), (−)-(S)-2-(2′,5′-Difluoro-[1,1′-biphenyl]-4-yl)-N-methyl-N-(4-methyl-5-(S-methylsulfonimidoyl)thiazol-2-yl)acetamide] | 10 to 50 | 10 to 50 | 10 to 50 | > 10 | no or significantly reduced carbonic anhydrase inhibition |  |  | < 5 |  |  |  |
